Consider 7 molecules from patent US6344440B1, “Antisecretory factor peptides regulating pathological permeability changes” (Rural Patent Svenska AB, priority 1995, dated 2002).

Data set [1] has as its system cholera toxin-induced fluid secretion in rat intestine. Particulars: in vivo.
The subject of data set [2] is toxin A from Clostridium difficile-induced inflammation and fluid secretion in the intestinal mucosa. Description: Toxin A-induced intestinal inflammation and fluid secretion, rat intestinal loop model. Format: in vivo. The note with it: for toxin A-induced fluid secretion: p<0.01. How it is done: The effect of rAF on inflammation in the intestinal mucosa was also tested in the rat intestinal loop model. […] Half of the rats in each group received 100 ng of rAF intravenously 30 sec prior to the challenge; the other half received PBS buffer as control. After killing the rat, the loops was dissected out, and the middle 2-3 cm part of the loops were frozen on dry ice. The frozen specimens were then sectioned in 8 μm thick sections by use of a Leica cryostat. […] Alkaline phosphatases are expressed by the intestinal epithelial cells and the staining allows an assessment and of the integrity of the intestinal epithelium.

The subject of data set [3] is CT-induced extravascular penetration of Evans blue in the small intestine. Particulars: rat, in vivo, iv.
The test system of data set [4] is CT-induced extravascular penetration of Evans blue in the plexus choroideus. Particulars: rat, in vivo, iv.
A short description of another data set: Toxicity of rAF in rats. In kind it is in vivo, rat. How it is done: Toxicity—In order to test the toxicity of rAF it was injected in a high dose, 50 μg per rat.
For data set [5], the system named is cholera toxin-induced Evans blue permeation of intestinal tissue. The note with it: rat, in vivo.

Turning to IVCHSKTR (Human) [P1], in data set [1], the “ED50 (amount causing halfmaximal inhibition)” value is recorded as 5 pmol, the active dose result is “less than 1 ng” and the “activity (inhibition of cholera secretion)” value is reported as “active”. For the same molecule, the “effect on toxin A-induced intestinal inflammation and fluid secretion” value in data set [2] (0.5 μg replacing the rAF protein) is on record as “achieved the same effect”. In addition, the “state of intestinal mucosa (alkaline phosphatase staining, FIG. 9)” value in data set [2] (0.5 μl of P1 prior to toxin challenge) is “a conserved and normal intestinal mucosa”. In data set [3], the “CT-induced extravascular penetration of Evans blue, small intestine” value was “inhibits the CT-induced extravascular penetration of Evans blue”. The “CT-induced extravascular penetration of Evans blue, plexus choroideus” value in data set [4] is given as “inhibits the CT-induced extravascular penetration of Evans blue”.
“N2: recombinant peptide, amino acids 36-80 of SEQ ID NO:2, expressed from basepairs 168-301 (VCHSKTRSNPENNVGLITLANDCEVLTTLTPDTGRILSKLHTVQP; Human)”: the “ED50 (amount causing halfmaximal inhibition)” value in data set [1] is 6 pmol.
With “N3: recombinant peptide, amino acids 36-51 of SEQ ID NO:2, expressed from basepairs 168-215 (VCHSKTRSNPENNVGL; Human)”, the “ED50 (amount causing halfmaximal inhibition)” value in data set [1] is 3 pmol.
In the case of “P3: peptide of amino acids 35-46 of SEQ ID NO:2, solid phase synthesis (IVCHSKTRSNPE; Human)”, in data set [1], the “ED50 (amount causing halfmaximal inhibition)” value is given as 7 pmol and the “activity (inhibition of cholera secretion)” value is reported as “active”.
Consider VCHSKT (Human) [P2], for which the “effect on the toxin response” value in data set [1] was “no effect”.

B1: N1: recombinant peptide, amino acids 1-80 of SEQ ID NO:2, expressed from basepairs 63-301 (protein)
chain: MVLESTMVCVDNSEYMRNGDFLPTRLQAQQDAVNIVCHSKTRSNPENNVGLITLANDCEVLTTLTPDTGRILSKLHTVQP
modifications: Human
With B1, the “ED50 (amount causing halfmaximal inhibition)” value in data set [1] came out at 4 pmol.

B2: rAF: recombinant human antisecretory factor, SEQ ID No. 2, thrombin-cleaved pure AF-1 protein expressed in E. coli (protein)
chain: MVLESTMVCVDNSEYMRNGDFLPTRLQAQQDAVNIVCHSKTRSNPENNVGLITLANDCEVLTTLTPDTGRILSKLHTVQPKGKITFCTGIRVAHLALKHRQGKNHKMRIIAFVGSPVEDNEKDLVKLAKRLKKEKVNVDIINFGEEEVNTEKLTAFVNTLNGKDGTGSHLVTVPPGPSLADALISSPILAGEGGAMLGLGASDFEFGVDPSADPELALALRVSMEEQRHAGGGARRAARASAAEAGIATTGTEDSDDALLKMTISQQEFGRTGLPDLSSMTEEEQIAYAMQMSLQGAEFGQAESADIDASSAMDTSEPAKEEDDYDVMQDPEFLQSVLENLPGVDPNNEAIRNAMGSLPPRPPRTARRTRRRKTRSETGGKG
modifications: Human
Take B2: in data set [1], the “inhibition of intestinal secretion compared to control animals” value is “significant inhibition” and the “reduction of the fluid secretion compared to controls” value is “significant reduction”. For the same molecule, the “damage of the intestinal mucosa (shedding, necrosis, bleeding)” value in data set [2] (100 ng i.v. 30 sec prior to 0.5 μg toxin A, 2.5 and 5 h) was “no shedding, necrosis or bleeding”. For the same molecule, the “toxin A-induced fluid secretion” value in data set [2] (100 ng i.v. 30 sec prior to 0.5 μg toxin A, after 2.5 h, control 199±4) is 137 ± 5 mg/cm. Besides, in data set [2] (100 ng i.v. 30 sec prior to 0.5 μg toxin A, after 6 h, control 421±3), the “toxin A-induced fluid secretion” value amounted to 203 ± 6 mg/cm. The toxic reaction entry in the data set “Toxicity of rAF in rats” (50 μg per rat, observation period of one week) is “No obvious toxic reaction”. In addition, in “Toxicity of rAF in rats” (rats given 100 fold higher doses than that causing half-maximal inhibition), the toxic reactions entry is reported as “no obvious toxic reactions”. Also, in data set [5], the “% increase of EB-konc” value was 0 NS %, the “CT-induced increase of EB extracted from the intestinal tissue” value is reported as “prevent this increase” and the “EB/g int. tissue × 10^−07” value is listed as 29.6 ± 1.5 EB/g int. tissue × 10^−07.
